According to patent publication US11292812B2, “3′3′-cyclic dinucleotides” (Institute of Organic Chemistry and Biochemistry, ASCR, V.V.I, priority 2018, dated 2022):

Assays:
WT STING [1] = target: T1, WT STING (Homo sapiens, UniProt Q86WV6, H232R); experiment: Differential Scanning Fluorimetry with WT STING; format: binding; set-up: truncated human WT STING or AQ STING (amino acid residues 140-343); 8xHis (N, cleaved yes); SUMO (N, cleaved yes); made in house; host or cells: E. coli Rosetta-gami B (DE3); settings: thermal shift, truncated human WT STING 0.1 mg/ml, 150 μM CDN; for ΔTm at 150 µM: read-out: DSF ΔTm WT STING
Description: (§1) Purified PCR products were cleaved with restriction enzymes BamHI (cat. #R0136S, NEB, Ipswich, USA) and NotI (cat. #R0189S, NEB, Ipswich, USA) and cloned into the pSUMO vector linearized with the identical enzymes.
(§2) DNase I (cat. #D5025, Sigma Aldrich, Czech Republic) and RNase A (cat. #R6513, Sigma Aldrich, Czech Republic) were added (final concentration 50 μg/ml) together with MgCl2 (final concentration 5 mmol·l^−1) to the homogenate and bacteria were lysed using French Press G-M™ High-Pressure Cell Press Homogenizer (1500 psi, 3 cycles). […] The resin was poured into a chromatography column, washed with 50 ml buffer A (50 mmol·l^−1 TrisCl (pH 8.0), 800 mmol·l^−1 NaCl, 3 mmol·l^−1 β-mercaptoethanol; 10% glycerol; 20 mmol·l^−1 imidazole) and 8-His-SUMO tagged STING proteins were eluted with 15 ml buffer A containing 300 mmol·l^−1 imidazole. […] Proteins were concentrated with Amicon® Ultra-15 10 K device (cat. #UFC901008, Merck Millipore, Billerica, USA) and flash frozen in liquid N2.
(§3) 20 μL solutions of the reaction mixtures were pipetted in triplicates into 96 well optical reaction plates and thermal denaturation of samples were performed on real time PCR cycler (LightCycler® 480 Instrument II—Roche, Basel, Switzerland). The first derivative of the thermal denaturation curves was performed to calculate denaturing temperatures of STING-CDN complexes and STING apoproteins. The thermal shift for each CDN was calculated by subtracting the average denaturing temperature of STING apoprotein from the average denaturing temperature of STING CDN complex.
Target sequence in this assay (Q86WV6 140-343 H232R): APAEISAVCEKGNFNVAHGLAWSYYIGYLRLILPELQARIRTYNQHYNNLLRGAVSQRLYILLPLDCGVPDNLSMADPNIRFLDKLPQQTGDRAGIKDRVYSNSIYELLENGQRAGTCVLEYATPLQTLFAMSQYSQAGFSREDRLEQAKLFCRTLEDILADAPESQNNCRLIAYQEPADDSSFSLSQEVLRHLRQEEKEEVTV

AQ STING (G230A-R293Q) = target: T2, AQ STING (G230A-R293Q) (Homo sapiens, UniProt Q86WV6, G230A/H232R/R293Q); experiment: Differential Scanning Fluorimetry with AQ STING; format: binding; settings: thermal shift, truncated human AQ STING 0.1 mg/ml, 150 μM CDN; for ΔTm at 150 µM: read-out: DSF ΔTm AQ STING
T2 construct: truncated human WT STING or AQ STING (amino acid residues 140-343); 8xHis (N, cleaved yes); SUMO (N, cleaved yes); made in house; host or cells: E. coli Rosetta-gami B (DE3)
Description: as §1, §2, §3

WT STING [2] = target: T1, WT STING; experiment: Digitonin assay using 293T wtSTING-FL reporter cells; format: cell-based; settings: 293T wtSTING-FL cells, ISRE firefly luciferase reporter, digitonin buffer 30 minutes, then 5 hours
Text: Two complementary oligonucleotides of the sequence […] […] […] […] […] […] […] The oligonucleotides were mixed in equal molar amounts, hybridized, and cleaved by restriction endonucleases HindIII (cat. #. R0104S, NEB, Ipswich, USA) and BglII (cat. #R0144S, NEB, Ipswich, USA). Ultimately, they were ligated into plasmid pGL4.27 (cat. #E6651, Promega, Madison, USA) linearized with the same enzymes. As result the sequence with four ISRE sites was placed upstream of the minimum promoter of firefly luciferase reporter gene.
After 5 minutes incubation at room temperature (RT), 250 μL of the mixture was added dropwise to the cells in one well. Cells were incubated 36 hours at 37° C. with 5% CO2, and then detached with 0.05% Trypsin and 0.22 g/L EDTA (both cat. #L0941, Biowest, Riverside, USA).
Transfected cells were seeded onto poly-D-lysine coated six well plates at density 50,000 cells per 1 cm^2 in DMEM medium with high glucose containing 10% heat inactivated FBS, 30 μg/mL blasticidin (cat. #ant-bl-05, InvivoGen, San Diego, USA), 0.06 mg/ml Penicillin G and 0.1 mg/ml Streptomycin Sulfate (both cat. #. L0018, Biowest, Riverside, USA). The medium was replenished every 3-4 days until visible colonies of cells resistant to blasticidin were formed.
Blasticidin resistant cells stably expressing WT STING were further transfected with pGL64.27-4×ISRE plasmid following the same procedure as described above. […] Homogeneous culture of stably double transfected cells was prepared by limiting dilution of cells in 96 well plates and wells with cells were selected that originated from a single cell.
The medium was removed next day and three fold serial dilutions of compounds in Digitonin buffer containing 50 mmol·l^−1 HEPES (cat. #H3375, Sigma Aldrich, Czech Republic) pH 7.0, 100 mmol·l^−1 KCl, 3 mmol·l^−1 MgCl2, 0.1 mmol·l^−1 DTT (cat. #D0632, Sigma Aldrich, Czech Republic), 85 mmol·l^−1 Sucrose (cat. #S7903, Sigma Aldrich, Česká Republika), 0.2% BSA (cat. #A2153, Sigma Aldrich, Czech Republic), 1 mmol·l^−1 ATP (cat. #A1852, Sigma Aldrich, Czech Republic), 0.1 mmol·l^−1 GTP (cat. #G8877, Sigma Aldrich, Czech Republic), and 10 μg/mL Digitonin A (cat. #D141, Sigma Aldrich, Czech Republic) were added to the cells. The buffer was removed after 30 minutes incubation at 37° C. with 5% CO2, the cells were washed once with 100 μl of cultivation medium, and 100 μl of medium was added to each well. The plates with cells were incubated for 5 hours at 37° C. with 5% CO2, 50 μl of the medium was removed and 30 μl of ONE-Glo™ Luciferase Assay System reagent (cat. #E6120, Promega, Madison, USA) was added to each well. Luminesce was read on Synergy H1 (Biotek, Winooski, USA).
Target sequence in this assay (Q86WV6 whole entry H232R, the tested form may be a part): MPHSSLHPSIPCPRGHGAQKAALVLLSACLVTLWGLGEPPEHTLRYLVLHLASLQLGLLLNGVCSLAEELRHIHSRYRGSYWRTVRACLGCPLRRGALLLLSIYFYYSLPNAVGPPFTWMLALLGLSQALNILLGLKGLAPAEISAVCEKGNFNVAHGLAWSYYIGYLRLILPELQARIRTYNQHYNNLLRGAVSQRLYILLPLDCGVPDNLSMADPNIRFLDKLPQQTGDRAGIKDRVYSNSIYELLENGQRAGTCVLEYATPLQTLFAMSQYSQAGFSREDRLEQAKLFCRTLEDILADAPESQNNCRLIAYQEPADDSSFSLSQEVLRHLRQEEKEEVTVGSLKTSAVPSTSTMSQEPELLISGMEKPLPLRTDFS

T2 sequence (Q86WV6 140-343 G230A/H232R/R293Q): as the sequence (Q86WV6 140-343 H232R) above, with G91A, R154Q counted along it

| Structure (SMILES) | DSF ΔTm WT STING (WT STING [1]) [°C] | DSF ΔTm AQ STING (AQ STING (G230A-R293Q)) [°C] | EC50 (WT STING [2]) [nM] | ΔTm at 150 µM (WT STING [1]) [°C] | ΔTm at 150 µM (AQ STING (G230A-R293Q)) [°C] |
| --- | --- | --- | --- | --- | --- |
| Nc1ncnc2c1ncn2[C@@H]1O[C@@H]2COP(=O)(O)COC3C(O)[C@H](n4cnc5c(N)ncnc54)O[C@@H]3COP(=O)(O)COC2C1O (stereo partly drawn) [Example 10, (2R,3R,3aR,8aR,10R,11R,11aR,16aR)-2,10-bis(6-amino-9H-purin-9-yl)-3,6,11,14-tetrahydroxvdodecahydrodifuro[3,2-e:3′,2′-l][1,4,8,11]tetraoxa[2,9]diphosphacyclotetradecine 6,14-dioxide] | 0.0 | −0.2 | > 100000 | – | – |
| Nc1nc2c(ncn2[C@@H]2O[C@@H]3COP(=O)(O)OC4C(O)[C@H](n5cnc6c(N)ncnc65)O[C@@H]4COP(=O)(O)COC3C2F)c(=O)[nH]1 (stereo partly drawn) [Example 11, 2-amino-9-((2R,3R,3aS,7aR,9R,10R,10aR,15aR)-2-(6-amino-9H-purin-9-yl)-10-fluoro-3,5,13-trihydroxy-5,13-dioxidodecahydro-2H-difuro[3,2-d:3′,2′-k][1,3,7,10][tetraoxa][2,8]diphosphacyclotridecin-9-yl)-1,9-dihydro-6H-purin-6-one] | – | – | 50 | 7.3 | 11.3 |
| Nc1nc2c(ncn2[C@@H]2O[C@@H]3COP(=O)(O)OC4C(F)[C@H](n5cnc6c(N)ncnc65)O[C@@H]4COP(=O)(O)COC3C2F)c(=O)[nH]1 (stereo partly drawn) [Example 12] | – | – | 20 | 9.3 | 17.3 |
| Nc1ncnc2c1ncn2[C@@H]1O[C@@H]2COP(=O)(O)OC3C(F)[C@H](n4cnc5c(N)ncnc54)O[C@@H]3COP(=O)(O)COC2C1F (stereo partly drawn) [Example 13, (2R,3R,3aR,7aR,9R,10R,10aR,15aR)-2,9-bis(6-amino-9H-purin-9-yl)-3,10-difluoro-5,13-dihydroxydecahydro-2H-difuro[3,2-d:3′,2′-k][1,3,7,10]tetraoxa[2,8]diphosphacyclotridecine 5,13-dioxide] | – | – | 12 | 9.4 | 16.1 |
| Nc1nc2c(ncn2[C@H]2CC3OCP(=O)(O)OC[C@H]4O[C@@H](n5cnc6c(N)ncnc65)C(F)C4OP(=O)(O)OC[C@H]3O2)c(=O)[nH]1 (stereo partly drawn) [Example 14, 2-amino-9-((2R,3R,3aR,7aR,9R,10aS,15aR)-2-(6-amino-9H-purin-9-yl)-3-fluoro-5,13-dihydroxy-5,13-dioxidodecahydro-2H-difuro[3,2-d:3′,2′-k][1,3,7,10]tetraoxa[2,8]diphosphacyclotridecin-9-yl)-1,9-dihydro-6H-purin-6-one] | – | – | 90 | 3.8 | 11.2 |
| Nc1nc2c(ncn2[C@@H]2O[C@@H]3COP(=O)(O)OC4C(F)[C@H](n5cnc6c(=O)[nH]c(N)nc65)O[C@@H]4COP(=O)(O)COC3C2F)c(=O)[nH]1 (stereo partly drawn) [Example 16, 9,9′-((2R,3R,3aR,7aR,9R,10R,10aR,15aR)-3,10-difluoro-5,13-dihydroxy-5,13-dioxidodecahydro-2H-difuro[3,2-d:3′,2′-k][1,3,7,10]tetraoxa[2,8]diphosphacyclotridecine-2,9-diyl)bis(2-amino-1,9-dihydro-6H-purin-6-one)] | – | – | 300 | 3.1 | 10.7 |
